# In patent US4558007A, “Process for detecting LDHk isozyme activity in human serum for use as a diagnostic aid and for monitoring response to cancer therapy” (Health Research, Inc. (Roswell Park Divison), priority 1983, dated 1985):
# Legend:
# [1] = tested on: LDHk detected in human tumor tissues; details: Anderson et al. 1981 study of human carcinomas; cited from earlier work
# LDHk [2] = details: background description of the isozyme; cited from earlier work
# human serum LDHk = experiment: Inhibition of serum LDHk (gel lanes stained in presence of inhibitor); assay type: biochemical; details: 3×10^-5 M in staining mixture, 4 1/2 hours
# Protocol: A reverse polarity gel system was used to isolate the LDHk isozyme which has a positive charge at pH 8.9 and migrates towards the cathode. The gel system was based on an imidazole/borate buffer system. The samples were analyzed on 3 mm thick, 20 well, 5.5% polyacrylamide slab gels photopolymerized with a riboflavin catalyst in the absence of persulfate. The gels were cast with a 0.15M potassium tetraborate buffer at pH 8.3. The lower reservoir buffer was 0.10M potassium tetraborate, pH 8.3, and the upper reservoir buffer contained 0.08M imidazole and 0.02M boric acid, pH 8.9. Gels were run an average of 16 hours at a voltage of 220 V, with cooling provided by circulating ice water.
# Staining was done using the nitroblue tetrazolium/phenazine methosulfate composition of Dietz and Lubrano as described previously using 1M Tris buffer, pH 8.0. The staining mixture was supplemented with 2% glycerol to complex with the borate ions. These gels were stained in the dar at a temperature of about 37° C. for 41/2 hours in an Ehrlenmeyer suction flask under a nitrogen atmosphere. After staining, the gels were fixed, scanned to measure the amount of stain, and stored as described above.
# An inhibition experiment was conducted on the serum LDHk. […]
# LDHk [3] = experiment: Inhibition of LDHk by dinucleoside tetraphosphates; assay type: biochemical; details: for Mode of inhibition of LDHk versus NAD+: competition with NAD+; for Ki: property shared by LDHk from cells transformed by Ki-MSV, human tumors, human liver, rat retina
Ki (LDHk [3]),SMILES,Inhibition of LDHk of human tumor tissues [1],Inhibition of LDHk (LDHk [2]),Inhibition of human serum LDHk activity (human serum LDHk),Mode of inhibition of LDHk versus NAD+ (LDHk [3])
–,"Nc1nc2c(ncn2[C@@H]2O[C@H](COP(=O)(O)OP(=O)(O)OP(=O)(O)O)[C@@H](O)[C@H]2O)c(=O)[nH]1 [GTP, guanosine triphosphate]",inhibited,inhibited,–,–
~50 µM,"Nc1ncnc2c1ncn2[C@@H]1O[C@H](COP(=O)(O)OP(=O)(O)OP(=O)(O)OP(=O)(O)OC[C@H]2O[C@@H](n3cnc4c(N)ncnc43)[C@H](O)[C@@H]2O)[C@@H](O)[C@H]1O [diadenosine tetraphosphate, 5',5' diadenosine tetraphosphate]",–,more strongly,not inhibited,not competitive
~50 µM,"Nc1nc2c(ncn2[C@@H]2O[C@H](COP(=O)(O)OP(=O)(O)OP(=O)(O)OP(=O)(O)OC[C@H]3O[C@@H](n4cnc5c(=O)[nH]c(N)nc54)[C@H](O)[C@@H]3O)[C@@H](O)[C@H]2O)c(=O)[nH]1 [diguanosine tetraphosphate, 5',5' diguanosine tetraphosphate]",–,more strongly,–,not competitive
